The record followed here is patent publication US12286632B2, “Rationally-designed synthetic peptide shuttle agents for delivering polypeptide cargos from an extracellular space to the cytosol and/or nucleus of a target eukaryotic cell, uses thereof, methods and kits relating to same” (Feldan Bio Inc., priority 2016, dated 2025).

Experiment [1] concerns 293T, Balb3T3, CHO, Myoblasts, Jurkat, CA46, HT2 and NIH3T3 cells. As to the kind of experiment: GFP-NLS transduction in several adherent and suspension cells, visualization by microscopy. It is filed as cell-based. As to conditions: 35 μM, 10 seconds (adherent) or 5 μM, 15 seconds (suspension); GFP-NLS 5 μM. On the procedure:
GFP-NLS recombinant protein (5 μM; see Example 5.1) was co-incubated with 35 μM of His-CM18-PTD4 and exposed to adherent cells for 10 seconds using […], or was co-incubated with 5 μM of His-CM18-PTD4 and exposed to suspension cells for 15 seconds using Protocol B, as described in Example 9.1. After washing the cells, GFP fluorescence was visualized by bright field and fluorescence microscopy. Sample images captured at 10× magnifications showing GFP fluorescence are shown for 293T (FIG. 37A), Balb3T3 (FIG. 37B), CHO (FIG. 37C), Myoblasts (FIG. 370), Jurkat (FIG. 37E), CA46 (FIG. 37F), HT2 (FIG. 37G), and NIH3T3 (FIG. 37H) cells. The insets show corresponding flow cytometry results performed as described in Example 3.3, indicating the percentage of GFP-NLS-positive cells.
Nuclear localization of the GFP-NLS was further confirmed in fixed and permeabilized myoblasts using cell immuno-labelling as described in Example 3.2a. GFP-NLS was labeled using a primary mouse monoclonal anti-GFP antibody (Feldan, #A017) and a secondary goat anti-mouse Alexa™-594 antibody (Abcam #150116). Nuclei were labelled with DAPI. Sample results for primary human myoblast cells are shown in FIG. 38, in which GFP immuno-labelling is shown in FIG. 38A, and an overlay of the GFP immuno-labelling and DAPI labelling is shown in FIG. 38B.

For experiment [2], the system named is HeLa cells. As to the kind of experiment: GFP-NLS and mCherry-NLS co-transduction, visualization by microscopy. As to conditions: each cargo 5 μM; shuttle 35 μM; 10 seconds, Protocol B. The class given is cell-based, Human. On the procedure:
The media in wells was removed, cells were washed once with PBS previously warmed at 37° C., and the shuttle agent/cargo mixture was then added to cover all cells for the desired length of time. The shuttle agent/cargo mixture in wells was removed, the cells were washed once with PBS, and fresh complete medium was added. Before analysis, the cells were washed once with PBS and fresh complete medium was added.
• GFP-NLS recombinant protein (5 μM; see Example 5.1) and mCherry™-NLS recombinant protein (5 μM) were co-incubated together with 35 μM of His-CM18-PTD4, and then exposed to HeLa cells for 10 seconds using Protocol B as described in Example 9.1. After washing steps, the cells were immediately visualized by bright field and fluorescence microscopy at 20× magnifications as described in Example 3.2. Sample results are shown in FIG. 28, in which corresponding images showing bright field (FIG. 28A), DAPI fluorescence (FIG. 28B), GFP-NLS fluorescence (FIG. 28C), and mCherry™-NLS fluorescence (FIG. 28D) are shown. White triangle windows indicate examples of areas of co-labelling between GFP-NLS and mCherry™ fluorescence signals in cell nuclei. […] 9.7 GFP-NLS Transduction by his-CM18-PTD4 in THP-1 Suspension Cells: Flow Cytometry

The subject of experiment [3] is HeLa cells. As to the kind of experiment: HOXB4-WT transduction, immuno-labelling and visualization by microscopy. As to conditions: HOXB4-WT 25 μM; shuttle 35 μM; 10 seconds, Protocol B. The class given is cell-based, Human. On the procedure: Adherent cells were plated on a sterile glass strip at 1.5×10^5 cells per well in a 24-plate well and incubated overnight at 37° C. For fixation, cells were incubated in 500 μL per well of formaldehyde (3.7% v/v) for 15 minutes at room temperature, and washed 3 times for 5 minutes with PBS. For permeabilization, cells were incubated in 500 μL per well of Triton™ X-100 (0.2%) for 10 minutes at room temperature, and washed 3 times for 5 minutes with PBS. For blocking, cells were incubated in 500 μL per well of PBS containing 1% BSA (PBS/BSA) for 60 minutes at room temperature. Primary mouse monoclonal antibody was diluted PBS/BSA (1%). Cells were incubated in 30 μL of primary antibody overnight at 4° C. Cells were washed 3 times for 5 minutes with PBS. Secondary antibody was diluted in PBS/BSA (1%) and cells were incubated in 250 μL of secondary antibody 30 minutes at room temperature in the dark. Cells were washed 3 times for 5 minutes with PBS. […]
Recombinant HOXB4-WT transcription factor (25 μM; Example 14.1) was co-incubated with 35 μM of His-CM18-PTD4 and exposed to HeLa cells for 10 seconds using Protocol B as described in Example 9.1. […] The cells were visualized by bright field and fluorescence microscopy at 20× and 40× magnifications as described in Example 3.2, and sample results are shown in FIG. 45. […]

SMILES strings stand for the structures.

For `CC[C@H](C)[C@H](NC(=O)[C@H](CCCCN)NC(=O)[C@H](CCCCN)NC(=O)[C@H](Cc1ccccc1)NC(=O)[C@H](CC(C)C)NC(=O)[C@H](CCCCN)NC(=O)[C@H](Cc1c[nH]c2ccccc12)NC(=O)[C@H](CCCCN)NC(=O)[C@H](Cc1c[nH]cn1)NC(=O)[C@H](Cc1c[nH]cn1)NC(=O)[C@H](Cc1c[nH]cn1)NC(=O)[C@H](Cc1c[nH]cn1)NC(=O)[C@H](Cc1c[nH]cn1)NC(=O)[C@@H](N)Cc1c[nH]cn1)C(=O)NCC(=O)N[C@@H](C)C(=O)N[C@H](C(=O)N[C@@H](CC(C)C)C(=O)N[C@@H](CCCCN)C(=O)N[C@H](C(=O)N[C@@H](CC(C)C)C(=O)N[C@H](C(=O)N[C@H](C(=O)NCC(=O)N[C@@H](Cc1ccc(O)cc1)C(=O)N[C@@H](C)C(=O)N[C@@H](CCCNC(=N)N)C(=O)N[C@@H](C)C(=O)N[C@@H](C)C(=O)N[C@@H](C)C(=O)N[C@@H](CCCNC(=N)N)C(=O)N[C@@H](CCC(N)=O)C(=O)N[C@@H](C)C(=O)N[C@@H](CCCNC(=N)N)C(=O)N[C@@H](C)C(=O)O)[C@@H](C)O)[C@@H](C)O)C(C)C)C(C)C` [His-CM18-PTD4], the “GFP-NLS nuclear delivery (microscopy)” value in experiment [1] is given as “successfully delivered to the nucleus of all the tested cells”. The “co-delivery of GFP-NLS and mCherry-NLS (microscopy)” value in experiment [2] is “successfully delivered together to the nucleus”. In addition, the “HOXB4-WT nuclear delivery (immuno-labelling)” value in experiment [3] is recorded as “HOXB4-WT was successfully delivered to the nucleus after 30 min”.
